Experimental data as given in patent publication US7135615B2, “Chromosome doubling method” (The Curators of the University of Missouri, priority 2001, dated 2006).
Several values for one entry are separate records, joined by “and”; a condition that tells them apart may be missing. Identical values can stand only once. Marks after values point to notes of the source that are not given here.

Key:
[1] = system: maize haploid seedlings of origin B55; experiment: doubled haploid production trial, B55 haploids (Example 4); details: for Ear: Plants with kernels after selfing % / Tassel: No. of fertile anthers extruded/tassel / Tassel: No. of fertile sectors/tassel / Tassel: Plants with fertile sectors % / Ear: Plants with kernels after selfing No. / Tassel: Plants with fertile sectors No. / No. of plants Survived / Ear: No. of kernels produced/ear: B55 haploids, 600 kPa, 2 days; for Ear: No. of kernels produced/ear: selfed
Experimental: (§1) Ten to nineteen plants were treated for each plot. Self pollinations were conducted on these treated haploids if there were fertile sectors on the tassel. Pollen grains were collected carefully on a sheet of paper and transferred to the silks repeatedly. Silks and husks were cut back prior to pollination in order to permit maximum seed set. The numbers of fertile tassel and ear sectors, as well as the numbers of anthers and selfed kernels were recorded. Statistical analyses were as described above.

[2] = system: maize haploid seedlings of origin B73; experiment: doubled haploid production trial, B73 haploids (Example 4); details: for Ear: Plants with kernels after selfing % / Tassel: No. of fertile anthers extruded/tassel / Tassel: No. of fertile sectors/tassel / Tassel: Plants with fertile sectors % / Ear: Plants with kernels after selfing No. / Tassel: Plants with fertile sectors No. / No. of plants Survived / Ear: No. of kernels produced/ear: B73 haploids, 600 kPa, 2 days; for Ear: Plants with kernels after selfing No. / Tassel: Plants with fertile sectors No.: 11 survived; for No. of plants Survived: 11 treated; for Ear: No. of kernels produced/ear: selfed
Experimental: as §1

[3] = system: maize haploid seedlings of origin B55 × A619; experiment: doubled haploid production trial, B55 × A619 haploids (Example 4); details: 600 kPa, 2 days; for Ear: No. of kernels produced/ear: selfed
Experimental: as §1

[4] = system: maize haploid seedlings of origin Oh43 × Mo17; experiment: doubled haploid production trial, Oh43 × Mo17 haploids (Example 4); details: 600 kPa, 2 days; for Ear: No. of kernels produced/ear: selfed
Experimental: as §1

[5] = system: maize haploid seedlings of origin W22 × W23; experiment: doubled haploid production trial, W22 × W23 haploids (Example 4); details: 600 kPa, 2 days; for Ear: No. of kernels produced/ear: selfed
Experimental: as §1

[6] = system: flowers of grasses; maize haploids; experiment: nitrous oxide procedure, general statement of doubling and selfing rates; assay type: in vivo, maize (Zea mays L.)
Text: The technique results from studies carried out for the development of a high-yield technique for chromosome doubling in grasses and particularly, in maize. The new procedure induces doubled sectors on the flowers of grasses at a high rate (50–100%) without injuring seedlings. […] With the technique, large number of plants (1000/day) can be treated by one person. In maize haploids, doubled sectors are induced both on the tassels and ears and self pollination is possible at 30–90% level, whereas no reliable procedure for chromosome doubling had previously been available.

haploid seedlings = experiment: survival of haploid seedlings treated with nitrous oxide gas (all experiments); assay type: in vivo, maize (Zea mays L.); details: 450 haploid seedlings treated
Experimental: The germinated seeds were transferred to small plastic pots filled with ProMix, a peat moss based growing medium (Hummert, St. Louis, Miss.). The seedlings were grown in a greenhouse for one to four weeks. Stock 6 induced 1–5 putative haploid kernels per ear (purple kernel with white embryo or yellow kernel with purple embryo) on all genotypes. A total of 715 putative haploid kernels were planted for the experiments. Most of them (94%) were determined to be haploid from their morphology and high sterility. The remaining 4.7% were misclassified F1s, 1.1% were hypoploids, and 0.3% (one plant induced from B73 and one plant from Oh43×Mol7) were spontaneous doubled haploids. […] In a second study, fourteen out of 50 treated Oh43 haploid seedlings died from fungus attack.

## [N-]=[N+]=O [nitrous oxide gas, nitrous oxide]
[1]; B55 haploids after nitrous oxide treatment
  successful self pollination rate: 90–100%
[1]; 5 leaf stage
  Ear: Plants with kernels after selfing %: 60** %
  Tassel: No. of fertile anthers extruded/tassel: 161.3** /tassel
  Tassel: No. of fertile sectors/tassel: 1.6 /tassel
  Tassel: Plants with fertile sectors %: 90** %
  Ear: No. of kernels produced/ear: 31.5* /ear
[1]; 5 leaf stage, 10 survived
  Ear: Plants with kernels after selfing No.: 6
  Tassel: Plants with fertile sectors No.: 9
[1]; 5 leaf stage, 10 treated
  No. of plants Survived: 10
[1]; 6 leaf stage
  Ear: Plants with kernels after selfing %: 90%
  Tassel: No. of fertile anthers extruded/tassel: 380 /tassel and 380.1** /tassel
  Tassel: No. of fertile sectors/tassel: 4.5** /tassel
  Tassel: Plants with fertile sectors %: 100** %
  Ear: No. of kernels produced/ear: 61.6 /ear
[1]; 6 leaf stage, 10 survived
  Ear: Plants with kernels after selfing No.: 9
  Tassel: Plants with fertile sectors No.: 10
[1]; 6 leaf stage, 10 treated
  No. of plants Survived: 10
[1]; 7 leaf stage
  Ear: Plants with kernels after selfing %: 78** %
  Tassel: No. of fertile anthers extruded/tassel: 401.3** /tassel
  Tassel: No. of fertile sectors/tassel: 10.6** /tassel
  Tassel: Plants with fertile sectors %: 100** %
  Ear: No. of kernels produced/ear: 65.6** /ear
[1]; 7 leaf stage, 9 survived
  Ear: Plants with kernels after selfing No.: 7
  Tassel: Plants with fertile sectors No.: 9
[1]; 7 leaf stage, 9 treated
  No. of plants Survived: 9
[2]; B73 haploids treated at the 7 leaf stage
  ear and silk abnormalities: deformed ears and delayed silk emergence
[2]; 5 leaf stage
  Ear: Plants with kernels after selfing %: 36 n.s. %
  Tassel: No. of fertile anthers extruded/tassel: 3.5 n.s /tassel
  Tassel: No. of fertile sectors/tassel: 0.5 n.s. /tassel
  Tassel: Plants with fertile sectors %: 45 n.s. %
  Ear: Plants with kernels after selfing No.: 4
  Tassel: Plants with fertile sectors No.: 5
  No. of plants Survived: 11
  Ear: No. of kernels produced/ear: 2.4 n.s. /ear
[2]; 6 leaf stage
  Ear: Plants with kernels after selfing %: 45%
  Tassel: No. of fertile anthers extruded/tassel: 13.2 /tassel
  Tassel: Plants with fertile sectors %: 64%
  Ear: Plants with kernels after selfing No.: 5
  Tassel: Plants with fertile sectors No.: 7
  No. of plants Survived: 11
  Ear: No. of kernels produced/ear: 10.7 /ear
[2]; 7 leaf stage
  Ear: Plants with kernels after selfing %: 18%
  Tassel: No. of fertile anthers extruded/tassel: 14.9 /tassel
  Tassel: No. of fertile sectors/tassel: 1.4 /tassel
  Tassel: Plants with fertile sectors %: 64%
  Ear: Plants with kernels after selfing No.: 2
  Tassel: Plants with fertile sectors No.: 7
  No. of plants Survived: 11
  Ear: No. of kernels produced/ear: 0.9 /ear
[3]; 5 leaf stage
  Ear: Plants with kernels after selfing %: 33%
  Tassel: No. of fertile anthers extruded/tassel: 25.7** /tassel
  Tassel: No. of fertile sectors/tassel: 1.1* /tassel
  Tassel: Plants with fertile sectors %: 67** %
  Ear: No. of kernels produced/ear: 1.3 /ear
[3]; 5 leaf stage, 15 survived
  Ear: Plants with kernels after selfing No.: 5
  Tassel: Plants with fertile sectors No.: 10
[3]; 5 leaf stage, 15 treated
  No. of plants Survived: 15
[3]; 6 leaf stage
  Ear: Plants with kernels after selfing %: 50** %
  Tassel: No. of fertile anthers extruded/tassel: 109.9** /tassel
  Tassel: No. of fertile sectors/tassel: 3.1** /tassel
  Tassel: Plants with fertile sectors %: 71** %
  Ear: No. of kernels produced/ear: 9.5* /ear
[3]; 6 leaf stage, 14 survived
  Ear: Plants with kernels after selfing No.: 7
  Tassel: Plants with fertile sectors No.: 10
[3]; 6 leaf stage, 14 treated
  No. of plants Survived: 14
[3]; 7 leaf stage
  Ear: Plants with kernels after selfing %: 62** %
  Tassel: No. of fertile anthers extruded/tassel: 60.2** /tassel
  Tassel: No. of fertile sectors/tassel: 3.9** /tassel
  Tassel: Plants with fertile sectors %: 92** %
  Ear: No. of kernels produced/ear: 15.7** /ear
[3]; 7 leaf stage, 13 survived
  Ear: Plants with kernels after selfing No.: 8
  Tassel: Plants with fertile sectors No.: 12
[3]; 7 leaf stage, 13 treated
  No. of plants Survived: 13
[4]; 5 leaf stage
  Ear: Plants with kernels after selfing %: 27 n.s. %
  Tassel: No. of fertile anthers extruded/tassel: 4.2 /tassel
  Tassel: Plants with fertile sectors %: 73** %
  Ear: No. of kernels produced/ear: 0.5 n.s. /ear
[4]; 5 leaf stage, 11 survived
  Ear: Plants with kernels after selfing No.: 3
  Tassel: Plants with fertile sectors No.: 8
[4]; 5 leaf stage, 11 treated
  No. of plants Survived: 11
[4]; 6 leaf stage
  Ear: Plants with kernels after selfing %: 38%
  Tassel: No. of fertile anthers extruded/tassel: 29.8** /tassel
  Tassel: No. of fertile sectors/tassel: 2.5** /tassel
  Tassel: Plants with fertile sectors %: 100** %
  Ear: No. of kernels produced/ear: 3.8 /ear
[4]; 6 leaf stage, 13 survived
  Ear: Plants with kernels after selfing No.: 5
  Tassel: Plants with fertile sectors No.: 13
[4]; 6 leaf stage, 14 treated
  No. of plants Survived: 13
[4]; 7 leaf stage
  Ear: Plants with kernels after selfing %: 13%
  Tassel: No. of fertile anthers extruded/tassel: 8.3* /tassel
  Tassel: No. of fertile sectors/tassel: 1.8** /tassel
  Tassel: Plants with fertile sectors %: 73** %
  Ear: No. of kernels produced/ear: 0.6 /ear
[4]; 7 leaf stage, 15 survived
  Ear: Plants with kernels after selfing No.: 2
  Tassel: Plants with fertile sectors No.: 11
[4]; 7 leaf stage, 19 treated
  No. of plants Survived: 15
[5]; 5 leaf stage
  Ear: Plants with kernels after selfing %: 45 n.s. %
  Tassel: No. of fertile anthers extruded/tassel: 27.6 n.s /tassel
  Tassel: No. of fertile sectors/tassel: 1.1 n.s. /tassel
  Tassel: Plants with fertile sectors %: 64 n.s. %
  Ear: No. of kernels produced/ear: 9.5 n.s. /ear
[5]; 5 leaf stage, 11 survived
  Ear: Plants with kernels after selfing No.: 5
  Tassel: Plants with fertile sectors No.: 7
[5]; 5 leaf stage, 12 treated
  No. of plants Survived: 11
[5]; 6 leaf stage
  Ear: Plants with kernels after selfing %: 40%
  Tassel: No. of fertile anthers extruded/tassel: 18.0 /tassel
  Tassel: No. of fertile sectors/tassel: 2.1 /tassel
  Tassel: Plants with fertile sectors %: 60%
  Ear: No. of kernels produced/ear: 3.3 /ear
[5]; 6 leaf stage, 10 survived
  Ear: Plants with kernels after selfing No.: 4
  Tassel: Plants with fertile sectors No.: 6
[5]; 6 leaf stage, 12 treated
  No. of plants Survived: 10
[5]; 7 leaf stage
  Ear: Plants with kernels after selfing %: 43%
  Tassel: No. of fertile anthers extruded/tassel: 7.1 /tassel
  Tassel: No. of fertile sectors/tassel: 1.9 /tassel
  Tassel: Plants with fertile sectors %: 71%
  Ear: No. of kernels produced/ear: 11.4 /ear
[5]; 7 leaf stage, 7 survived
  Ear: Plants with kernels after selfing No.: 3
  Tassel: Plants with fertile sectors No.: 5
[5]; 7 leaf stage, 8 treated
  No. of plants Survived: 7
[6]; grasses, without injuring seedlings
  rate of doubled sectors induced on the flowers of grasses: 50–100%
[6]; maize haploids, doubled sectors on both tassels and ears
  level at which self pollination is possible: 30–90%
Haploid seedlings
  survived the treatment: 92%
